pIC50: −log10 of the molar value. Where a SMILES comes first, the peptide text is derived from it. Bridges are numbered along the chain shown (N, C = ends). [ ]: non-standard residue; d: D form.
How the values were obtained:
[1] = test system: DENV serotype 2 (NIBSC code S16803); experiment: Plaque reduction assay in Vero cells, DENV2; assay type: cell-based, Dengue virus; conditions: DENV2, plaque reduction; NA = no detectable activity at concentrations lower than or equal to 100 μM; read-out: IC50, antiviral activity in Vero cells (50% inhibitory activity)
Protocol: The cells were grown in 24 well plates until the monolayer reached approximately 90% confluence, after which they were washed twice with MEM medium without Fetal Bovine Serum (FBS). Then, peptide dilutions were added and the cell-peptide mixtures were incubated typically for 1 hour at 37° C., followed by the addition of a DENV serotype 2 preparation (NIBSC code S16803) at a multiplicity of infection (m.o.i.) of 0.001. The cells were then incubated for 1 hour at 37° C., and once the period of incubation with the viral inoculum concluded, were washed again to remove unbound virions and incubated for 5 days at 37° C. in high density medium (MEM supplemented with non-essential amino acids, 1% FBS, 1% carboxymethylcellulose) in order to let viral plaques form. Afterwards, the cells were stained with 0.1% Naphtol Blue Black in 0.15 M sodium acetate. Two replicates per experimental point were used in each assay, and three independent determinations were performed for each sample.
Next, it was decided to compare the antiviral activity of peptides PHB4 and HDIII3CL against all four DENV serotypes, with the objective of comparing their respective IC50 values. This comparison was performed with plaque reduction assays on Vero cells, adding the viral inoculum for each serotype (DENV1, NIBSC code West Pac 74, DENV2, NIBSC, code S16803; DENV3, NIBSC, code CH53489; DENV 4, NIBSC code TVP360) at a m.o.i. of 0.001.

[2] = Toxicity in Vero cells (MTT assay and manual cell counting); assay type: cell-based; conditions: ‡ non toxic at 1000 μM, read-out: Ctox50
Protocol: (§1) The toxicity of the beta hairpin peptides was assessed with the MTT (3-(4,5-dimethylthiazol-2-yl)-2,5-diphenyltetrazolium bromide, Invitrogen, USA) assay (Mosmann, T. (1983). J. Immunol. Methods 65, 55-63.), and by manual cell counting using a Neubauer chamber. Ninety-six well plates (Costar, USA) were seeded with 200 μL/well of a suspension containing Vero cells at 1×10^5 cells/mL and incubated until the monolayers reached approximately 90% confluence, typically for 18-24 h. After washing the cells twice with DMEM (Dulbecco's Modified Eagle Medium) medium, 50 μL/well were added of the peptide or additive dilutions to be evaluated (Triton ^X-100™ dissolved in PBS was used as positive toxicity control) and the plates were incubated at 37° C. under a 5% CO2 atmosphere for 2 or 24 h. Two different procedures were then employed to measure toxicity: • a) A 2 mg/mL solution of MTT in PBS was added (50 μL/well) and the plates were incubated for further 4 h at 37° C., 5% CO2. The medium was then removed, and 100 μL/well of DMSO were then added to solubilize formazan precipitates. Finally, the optical density (OD) of the supernatants at a wavelength of 540 nm was measured using a plate reader (Sensident Scan™, Merck, Germany). • b) The plates were washed with 200 μL/well of DMEM medium and then a trypsin solution (Sigma, USA) was added at 50 μL/well. After inactivating the trypsin by adding 150 μL/well of DMEM supplemented with 10% FBS, the cells were counted using the Trypan Blue (Gibco, USA) vital stain. The data were processed using the statistical software package Prism v5.3 (GraphPad, USA), using non-linear regression to fit them to a log10 (concentration) vs response curve.

Vero cells = experiment: as above; assay type: cell-based; conditions: ‡ non toxic at 1000 μM
Protocol: as §1

sLRP1-CIV = target: T1, sLRP1-CIV (Homo sapiens, UniProt Q07954); experiment: Biacore (SPR) binding to immobilized sLRP1-CIV; conditions: peptides at 20 μM
T1 construct: purchased R&D Systems, USA
Protocol: The interaction of the beta hairpin peptides with soluble fragments of the LRP1 receptor was studied by Surface Plasmon Resonance (SPR), using a Biacore X unit. In this technique, one of the interaction partners to be studied is immobilized on the surface of a chip, and the other interaction partner is dissolved in a solution that runs through the measurement cell on top of the interaction surface, under conditions of controlled flow. The association and dissociation of interacting partners is measured in resonance units (RU) and plotted, as a function of time, on charts known as ‘sensorgrams’. SPR, therefore, enables the experimenter to obtain detailed information about the interaction without having to label either interaction partner.
In this example, one channel of a CM5 chip (GE Healthcare, USA) was used to immobilize protein sLRP1-CIV on its surface at high density (see Table 6) and recombinant Human Serum Albumin (rHSA, Sigma-Aldrich, USA) was immobilized on the other channel.
Although it was decided to immobilize sLRP1-CIV at high density because these conditions make easier the detection of any potential interactions with compounds whose molecular weight is lower than that of average proteins (such as the peptides this experiment is intended to study), it must be stressed that in high-density surfaces, mass transfer limitations and the possibility of multivalent binding make difficult the accurate determination of kinetic constants. Therefore, and in order to characterize in greater detail the sLRP1-CIV binding surface, different RAP dilutions (0.6-20 μM) were loaded, and RU were registered under conditions of interaction equilibria (250 sec, see FIG. 13B). […] The data also indicate that immobilized sLRP1-CIV faithfully reproduces the previously reported characteristics of the LRP1-RAP interaction.
The binding of beta hairpin peptides to sLRP1-CIV was studied by loading 20 μM dilutions in running buffer of the different peptide variants onto the sLRP1-CIV chip characterized above. The high strength of the resulting signals is consistent with the binding of aggregated, rather than monomeric forms of the peptides. Therefore, the observed variations between different peptides may reflect either differences in the affinity of unitary peptide interactions or differences in aggregation numbers and/or geometries that lead to variations in the number of peptide units able to simultaneously engage immobilized sLRP1-CIV molecules in a multivalent manner. […] The difference between peptides HDIII3CL2 and HDIII3CL is that the former has an additional C-terminal lysine and has, therefore, a stronger cationic character, which may facilitate additional electrostatic interactions with the negatively charged LRP1 receptor.

Compound	pIC50 [1]	CC50 [2] [µM]	Ctox50 (Vero cells)	Binding to sLRP1-CIV by SPR, in words (sLRP1-CIV)
CC[C@H](C)[C@@H]1NC(=O)CNC(=O)[C@H]([C@@H](C)CC)NC(=O)[C@H](C(C)C)NC(=O)[C@H]([C@@H](C)CC)NC(=O)[C@H](CC(N)=O)NC(=O)[C@H](CO)NC(=O)[C@@H](N)CSSC[C@@H](C(=O)N[C@@H](CCCCN)C(=O)N[C@@H](CCCCN)C(=O)N[C@@H](CCCCN)C(N)=O)NC(=O)[C@H](Cc2c[nH]c3ccccc23)NC(=O)[C@H](CC(N)=O)NC(=O)[C@H]([C@@H](C)CC)NC(=O)[C@H](CCCCN)NC(=O)[C@H](CC(C)C)NC(=O)[C@H](C)NC(=O)[C@H](CCCCN)NC(=O)[C@H](CC(=O)O)NC(=O)CNC1=O [HDIII3CL2, reference compound] (H-CSNIVIGIGDKALKINWCKKK-NH2; disulfide 1-18)	4.70	1000		
CC(C)[C@@H]1NC(=O)[C@H](CCCCN)NC(=O)[C@H](CCCCN)NC(=O)[C@H](CC(=O)O)NC(=O)[C@H]2CCCN2C(=O)[C@H](CCC(=O)O)NC(=O)[C@H]([C@@H](C)O)NC(=O)[C@H](Cc2c[nH]c3ccccc23)NC(=O)[C@H](CC(N)=O)NC(=O)[C@H](C(C)C)NC(=O)[C@@H](N)CSSC[C@@H](C(=O)N[C@@H](CCCCN)C(=O)N[C@@H](CCCCN)C(=O)N[C@@H](CCCCN)C(N)=O)NC(=O)[C@H](Cc2c[nH]c3ccccc23)NC(=O)[C@H](CC(N)=O)NC1=O [PHB1] (H-CVNWTE[dP]DKKVNWCKKK-NH2; disulfide 1-14)	4.12		>>1000^‡ μM	
CC(C)[C@@H]1NC(=O)[C@H](CCCCN)NC(=O)[C@H](Cc2c[nH]c3ccccc23)NC(=O)[C@H](CCCCN)NC(=O)[C@H]2CCCN2C(=O)[C@H](CCCNC(=N)N)NC(=O)[C@H]([C@@H](C)O)NC(=O)[C@H](Cc2c[nH]c3ccccc23)NC(=O)[C@H](Cc2ccc(O)cc2)NC(=O)[C@H](C(C)C)NC(=O)[C@@H](N)CSSC[C@@H](C(=O)N[C@@H](CCCCN)C(=O)N[C@@H](CCCCN)C(=O)N[C@@H](CCCCN)C(N)=O)NC(=O)[C@H](Cc2c[nH]c3ccccc23)NC(=O)[C@H](CC(N)=O)NC1=O [PHB2] (H-CVYWTR[dP]KWKVNWCKKK-NH2; disulfide 1-14)	4.92	85		
CC(C)[C@H](NC(=O)[C@H](CC(N)=O)NC(=O)[C@H](Cc1c[nH]c2ccccc12)NC(=O)[C@@H](NC(=O)[C@H](Cc1c[nH]c2ccccc12)NC(=O)[C@H](CCCCN)NC(=O)[C@H](CC(N)=O)NC(=O)[C@@H](CCCCN)NC(=O)[C@H](CCC(=O)O)NC(=O)[C@H](Cc1c[nH]c2ccccc12)NC(=O)[C@H](CCCCN)NC(=O)[C@H](Cc1c[nH]c2ccccc12)NC(=O)[C@H](CC(N)=O)NC(=O)[C@H](Cc1c[nH]c2ccccc12)NC(=O)[C@@H](N)Cc1ccccc1)[C@@H](C)O)C(=O)N[C@@H](CCC(=O)O)C(=O)NCC(=O)NCC(=O)N[C@@H](CCCCN)C(=O)N[C@@H](CCCCN)C(=O)N[C@@H](CCCCN)C(N)=O [PHB5] (H-FWNWKWE[dK]NKWTWNVEGGKKK-NH2)	4.77	259		
CC(C)[C@H](NC(=O)[C@H](CC(N)=O)NC(=O)[C@H](Cc1c[nH]c2ccccc12)NC(=O)[C@@H](NC(=O)[C@H](Cc1c[nH]c2ccccc12)NC(=O)[C@H](CCCCN)NC(=O)[C@H](CC(N)=O)NC(=O)[C@H]1CCCN1C(=O)[C@H](CCC(=O)O)NC(=O)[C@H](Cc1c[nH]c2ccccc12)NC(=O)[C@H](CCCCN)NC(=O)[C@H](Cc1c[nH]c2ccccc12)NC(=O)[C@H](CC(N)=O)NC(=O)[C@H](Cc1c[nH]c2ccccc12)NC(=O)[C@@H](N)Cc1ccccc1)[C@@H](C)O)C(=O)N[C@@H](CCC(=O)O)C(=O)NCC(=O)NCC(=O)N[C@@H](CCCCN)C(=O)N[C@@H](CCCCN)C(=O)N[C@@H](CCCCN)C(N)=O [PHB6] (H-FWNWKWE[dP]NKWTWNVEGGKKK-NH2)	4.48	411		
CC[C@H](C)[C@@H]1NC(=O)[C@H]([C@@H](C)O)NC(=O)[C@H](C(C)C)NC(=O)[C@H](CC(N)=O)NC(=O)[C@H](C(C)C)NC(=O)[C@@H](N)CSSC[C@@H](C(=O)N[C@@H](CCCCN)C(=O)N[C@@H](CCCCN)C(=O)N[C@@H](CCCCN)C(N)=O)NC(=O)[C@H](Cc2c[nH]c3ccccc23)NC(=O)[C@H](CC(N)=O)NC(=O)[C@H](Cc2ccc(O)cc2)NC(=O)[C@H](CCCCN)NC(=O)[C@H](CCCCN)NC(=O)CNC(=O)[C@H](CC(N)=O)NC1=O [PHB7] (H-CVNVTINGKKYNWCKKK-NH2; disulfide 1-14)	4.10	1910		
CC[C@H](C)[C@@H]1NC(=O)[C@H](Cc2ccccc2)NC(=O)[C@H](Cc2c[nH]c3ccccc23)NC(=O)[C@H](CC(N)=O)NC(=O)[C@H](Cc2ccc(O)cc2)NC(=O)[C@H](CCCCN)NC(=O)[C@H](CCCCN)NC(=O)CNC(=O)[C@H](CC(N)=O)NC(=O)[C@H]([C@@H](C)CC)NC(=O)[C@H]([C@@H](C)O)NC(=O)[C@H](C(C)C)NC(=O)[C@H](CC(N)=O)NC(=O)[C@H](C(C)C)NC(=O)[C@H](CCC(=O)O)NC(=O)[C@H]([C@@H](C)CC)NC(=O)[C@@H](N)CSSC[C@@H](C(=O)N[C@@H](CCCCN)C(=O)N[C@@H](CCCCN)C(=O)N[C@@H](CCCCN)C(N)=O)NC1=O [PHB8] (H-CIEVNVTINGKKYNWFICKKK-NH2; disulfide 1-18)	4.82	300		
CC[C@H](C)[C@@H]1NC(=O)[C@H](Cc2ccccc2)NC(=O)[C@H](Cc2c[nH]c3ccccc23)NC(=O)[C@H](CC(N)=O)NC(=O)[C@H](Cc2ccc(O)cc2)NC(=O)[C@H](CCCCN)NC(=O)[C@H](CCCCN)NC(=O)CNC(=O)[C@H](CC(N)=O)NC(=O)[C@H]([C@@H](C)CC)NC(=O)[C@H]([C@@H](C)O)NC(=O)[C@H](C(C)C)NC(=O)[C@H](Cc2ccc(O)cc2)NC(=O)[C@H](C(C)C)NC(=O)[C@H](CCC(=O)O)NC(=O)[C@H]([C@@H](C)CC)NC(=O)[C@@H](N)CSSC[C@@H](C(=O)N[C@@H](CCCCN)C(=O)N[C@@H](CCCCN)C(=O)N[C@@H](CCCCN)C(N)=O)NC1=O [PHB9] (H-CIEVYVTINGKKYNWFICKKK-NH2; disulfide 1-18)	5.15	216		
HDIII3CLC-				at most marginal interaction
HDIII3CLK-				detectable specific binding
HDIII3CLW-				detectable specific binding
